“Also recorded” adds a separate entry of the source. Read-outs that look alike come from different tables or passages of the source.
What was measured:
[1] = target: T1, Δ5 -lipoxygenase (Rattus norvegicus, UniProt P12527); assay: Lipoxygenase activity in Rat Basophilic Leukemia Cells (RBL-1), 5-HETE formation; format: cell-based; details: for effect on lipoxygenase activity (in words): rat basophilic cells
T1 construct: Crude cell extract was used as the source of the Δ5 -lipoxygenase enzyme; endogenous in cells; host or cells: RBL-1 (rat basophilic leukemia) cells, whole or sonicated crude extract
T1 sequence (P12527 1-673): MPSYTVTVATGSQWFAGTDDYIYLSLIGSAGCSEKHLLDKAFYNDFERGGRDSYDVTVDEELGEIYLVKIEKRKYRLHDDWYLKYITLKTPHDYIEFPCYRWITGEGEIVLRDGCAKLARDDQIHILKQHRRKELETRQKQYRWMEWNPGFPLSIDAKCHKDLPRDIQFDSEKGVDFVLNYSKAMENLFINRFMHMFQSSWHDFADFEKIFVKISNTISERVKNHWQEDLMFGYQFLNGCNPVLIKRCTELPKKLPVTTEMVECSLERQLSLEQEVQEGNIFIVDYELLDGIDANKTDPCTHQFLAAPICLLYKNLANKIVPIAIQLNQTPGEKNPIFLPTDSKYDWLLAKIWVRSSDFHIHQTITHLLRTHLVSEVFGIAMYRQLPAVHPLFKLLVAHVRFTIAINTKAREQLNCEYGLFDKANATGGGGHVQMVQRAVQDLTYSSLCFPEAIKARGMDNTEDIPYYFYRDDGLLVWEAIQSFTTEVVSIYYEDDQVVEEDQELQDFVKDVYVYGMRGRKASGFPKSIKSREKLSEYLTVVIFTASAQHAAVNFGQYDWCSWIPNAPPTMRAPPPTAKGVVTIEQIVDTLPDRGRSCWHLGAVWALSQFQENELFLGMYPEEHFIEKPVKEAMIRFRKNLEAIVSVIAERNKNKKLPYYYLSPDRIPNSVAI
Protocol: Rat basophilic leukemia cells (RBL-1) are basophilic members of the leukocyte series and constitute a circulating form of the mast cell, i.e. they share many or all of the biochemical features of the mast cell involved in mediator release. As leukemic cells they are readily available as they can be grown in culture. RBL-1 cells were grown in minimal essential medium (MEM) containing 10% fetal calf serum, 5% calf serum, 2 mM glutamine, and 50 μg/ml gentamicin. The cells were harvested for each assay, washed once with 50 mM potassium phosphate, 1 mM EDTA, and 0.1% gelatin, pH=7.0. The cells were then resuspended to a concentration of 1.85×10^7 cells/ml. For broken cell assays (i.e. to measure direct effects on the enzyme), these cells were sonicated in an ultrasonic sonifier for 3 minutes while maintaining the sample temperature at 4° C. Crude cell extract was used as the source of the Δ5 -lipoxygenase enzyme. […] The reaction was stopped by the addition of 1 M citric acid to give a final pH of approximately 3.5. The reaction mixture was extracted with diethylether, brought to dryness under a stream of nitrogen and the residues were resuspended and spotted on Gilman ITLC silica gel-impregnated glass filter strips. Synthetic hydroxyeicosotetraenoic acid (5-HETE) standard was spotted with each sample and the sheets were developed in isoctane:2-butanone:glacial acetic acid (100:9:1). After development, the sheets were dried, and the 5-HETE standard was visualized in a tank of iodine crystals. Areas corresponding to 5-HETE were quantitated by liquid scintillation counting. The remainder of each lane was also counted in four sections. Activity was determined as the percent conversion of the total counts in each lane to the area corresponding to 5-HETE. Percent inhibition was calculated from the change in percent conversion in the presence of drug. Blanks determined in the presence of boiled cells were subtracted from all values.

[2] = tested on: passive cutaneous anaphylaxis reaction; assay: Passive Cutaneous Anaphylaxis Test (PCA), topical antiallergic activity; format: in vivo, Male Sprague Dawley rats; details: for inhibition in vivo at 0.02 % / inhibition in vivo at 0.2 % / inhibition in vivo at 2 % / inhibition in vivo at 0.01 % / inhibition in vivo at 1 %: Rattus norvegicus, read-out: Percent Inhibition
From the text: Male Sprague Dawley rats (175-200 grams) were sensitized intradermally with 0.1 cc of high dilution of antiovalbumin antiserum (IgE-containing) that was predetermined to cause a well circumscribed and reproducible skin wheal response. Two intradermal sensitization sites were applied to the backs of each rat. […] One hour later the rats were challenged intravenously with a solution containing 0.5% ovalbumin and 0.5% Evans blue dye in a saline vehicle. Twenty minutes later the rats were killed by carbon dioxide asphyxiation, the dorsal skin reflected and the blue wheal measured as the mean of the two largest perpendiculars. This mean was used to calculate the area of the wheal according to [A=π(d/2)^2 ]. The wheal area under the drug-treated site was used as an index of local topical activity and the distant site served as an index of systemic activity.

[3] = tested on: K^+ -stimulated Ca^++ -uptake in rabbit aortic slices; assay: Calcium Uptake in Rabbit Aorta (K+-stimulated Ca++ uptake in aortic slices); format: cell-based, New Zealand white rabbits; details: for inhibition of K+-stimulated Ca++ uptake (in words): rabbit aortic slices, FIG. 2; for effects on calcium mechanisms / calcium movement assays (in words): summary over aortic uptake and contraction assays
Protocol: Female, New Zealand white rabbits (1-2 kg) were sacrificed by cervical dislocation, and the thoracic […] was immediately removed, cleaned, and sliced into rings (5-20 mg). The tissue was preincubated at 37° C. for 60 minutes. […] After allowing radioactive calcium uptake to occur for 45 minutes, the reaction was stopped by transferring the tissue to a wash-out solution containing 80 mM LaCl3 for 30 minutes. The tissue was removed, blotted of excess moisture, and weighed. The aortic slices were then placed into scintillation vials containing 1 ml Protosol tissue solubilizer and incubated overnight at 55° C. After coding and acidifying, the samples were counted to determine ^45 Ca uptake. Sample results were normalized to counts per minutes per mg, wet tissue weight.

[4] = tested on: K^+ -Stimulated Ca^++ -mediated Contractions of Rabbit Aortic Strips; assay: Potassium-Induced Calcium-Mediated Contraction of Aortic Strips; format: cell-based, New Zealand strain rabbits; details: for IC50: Oryctolagus cuniculus, read-out: IC50, K+-stimulated Ca++-mediated contractions
From the text: New Zealand strain rabbits (1-1.5 kg) were sacrificed by cervical dislocation and the thoracic cavity was opened to expose a section of the aorta. A section of the aorta from the diaphragm to the aortic arch was isolated, dissected out and immediately placed in chilled Krebs bicarbonate buffer solution. A 2 inch section of the aorta was supported on a glass rod in a petri dish with chilled Krebs bicarbonate solution and cleaned of excess tissue. The aorta was then cut into helical strips (3×30 mm) and suspended from a FT03 isometric force displacement transducer coupled to a Beckman recorder. The tissue bath was filled with Krebs bicarbonate buffer maintained at 37° C. and bubbled with 95% 02 and 5% CO2. The helical strips were allowed to equilibrate for 1.5 to 2 hours with a 4 gram resting load. The tissues were dosed in a cumulative manner with 10 mM, 15 mM, 20 mM, 30 mM, 40 mM, 80 mM and 120 mM KCl. The tissues were washed several times after the KCl treatment and were allowed to equilibrate for 1-1.5 hours until a baseline equivalent to 4 grams tension was achieved. A second dose-response to KCl was repeated and again washed and allowed to equilibrate. […] Changes in grams tension were recorded.

[5] = RBL-1, 1 μM, read-out: % Inhibition of lipoxygenase activity
[6] = RBL-1, 100 μM, read-out: % Inhibition of lipoxygenase activity
[7] = RBL-1, read-out: % Inhibition of lipoxygenase activity

Row | Compound | effect on lipoxygenase activity (in words) [1] | inhibition in vivo at 0.02 % ([2]; Topical Dose 0.02%) [%] | inhibition in vivo at 0.2 % ([2]; Topical Dose 0.20%) [%] | inhibition in vivo at 2 % ([2]; Topical Dose 2.00%) [%] | Significance (P < .05) of inhibition ([2]; Topical Dose 0.02%) | Significance (P < .05) of inhibition ([2]; Topical Dose 0.20%) | Significance (P < .05) of inhibition ([2]; Topical Dose 2.00%) | activity in the PCA test (in words) ([2]; topical) | inhibition at 100 µM [1, 7] [%] | inhibition of vascular contraction (in words) ([4]; rabbit aortic strips) | Significance (P < .05) of inhibition ([2]; Topical Dose 1.00%) | other results
1 | CN(C)CCC(c1ccc(Cl)cc1)c1ccccn1 (stereo not drawn) [Chlorpheniramine, chlorpheniramine] | totally inactive; also recorded: None of the compounds produced significant inhibition | 20 | 16.3 | 16.7 | No | No | No | totally inactive |  |  |  | inhibition at 1 µM [1, 5]: 0%; inhibition at 100 µM [1, 6]: 1%; Inhibition of 45Ca++ Uptake Aortic Slices (summary grade) ([3]; Table 4 grade, symbols not defined): +; inhibition of K+-stimulated Ca++ uptake (in words) [3]: totally inactive; effects on calcium mechanisms / calcium movement assays (in words) [3]: marginal effects
2 | CN1CCC(=C2c3ccccc3C=Cc3ccccc32)CC1 [Cyproheptadine, cyproheptadine] | statistically equipotent effects on lipoxygenase activity from either whole or broken cells |  |  |  |  |  |  | potent topical antiallergic effect | 78 | potent inhibitors | Yes | inhibition in vivo at 0.01 % ([2]; topical): 11.7%; inhibition in vivo at 1 % ([2]; topical): 98.1%; Significance (P < .05) of inhibition ([2]; Topical Dose 0.01%): No; Percent Inhibition ([2]; Topical Dose 0.10%): 25.0%; Significance (P < .05) of inhibition ([2]; Topical Dose 0.10%): Yes; topical ED50, inhibition in the PCA test ([2]; topical 0.1 ml, 1 hour before challenge, vehicle water/alcohol/N-decylmethylsulfoxide, 95% F.L. 0.07, 0.25): 0.13%; inhibition of cutaneous allergic reaction (in words) ([2]; topical, 1% dose): virtually complete inhibition; IC50 ([3]; Oryctolagus cuniculus, read-out: IC50, K+-stimulated Ca++ uptake): ~1 µM
3 | CN(C)CCOC(c1ccccc1)c1ccccc1 [Diphenhydramine, diphenhydramine] |  | 0 | 8.5 | 43.9 | No | No | No | inactive |  |  |  | 
4 | Fc1ccc(C(c2ccc(F)cc2)N2CCN(C/C=C/c3ccccc3)CC2)cc1 [Flunarizine, flunarizine] |  | 16.3 | 13 | 17.2 | No | No | No | inactive |  |  |  | 
5 | OCCOCCN1CCN(C(c2ccccc2)c2ccc(Cl)cc2)CC1 (stereo not drawn) [Hydroxyzine, hydroxyzine] | totally inactive; also recorded: None of the compounds produced significant inhibition |  |  |  |  |  |  | totally inactive |  | orders of magnitude less potent | No | inhibition at 1 µM [1, 5]: 0%; inhibition at 100 µM [1, 6]: 15%; IC50 ([4]; rabbit aortic strips): 50 µM; inhibition in vivo at 0.01 % ([2]; Topical Dose 0.01%): 0%; inhibition in vivo at 1 % ([2]; Topical Dose 1.00%): 0%; Significance (P < .05) of inhibition ([2]; Topical Dose 0.01%): No; Percent Inhibition ([2]; Topical Dose 0.10%): 9.7%; Significance (P < .05) of inhibition ([2]; Topical Dose 0.10%): No; inhibition of K+-stimulated Ca++ uptake (in words) [3]: did not produce 50% inhibition even at a concentration of an order of magnitude greater than the IC50 for cyproheptadine; effects on calcium mechanisms / calcium movement assays (in words) [3]: marginal effects
6 | CC[C@@H](CO)NC(=O)[C@@H]1C=C2c3cccc4c3c(cn4C)C[C@H]2N(C)C1 [Methysergide, methysergide] | None of the compounds produced significant inhibition |  |  |  |  |  |  |  | 30 |  |  | inhibition at 1 µM [1, 7]: 1%
7 | CN(C)CCOc1ccccc1Cc1ccccc1 [Phenyltoloxamine, phenyltoloxamine] |  | 2.6 | 14.3 | 25.9 | No | No | No | inactive |  |  |  | 
8 | COc1ccc(CCN(C)CCCC(C#N)(c2ccc(OC)c(OC)c2)C(C)C)cc1OC (stereo not drawn) [Verapamil, verapamil] | slight activity; also recorded: None of the compounds produced significant inhibition with the exception of the very high dose (1×10^-4 M) of verapamil |  |  |  |  |  |  | totally inactive | 51 | potent inhibitors | No | inhibition at 1 µM [1, 7]: 0%; IC50 [4]: 0.55 µM; inhibition in vivo at 1 % ([2]; topical): 0%

Reference: patent publication US4444780A, “Method for treating atopic dermatitis” (priority 1982, dated 1984)
